Patent EP0427427A2, “Use of arylalkylamides in the treatment of neurodegenerative diseases” (FISONS CORPORATION, priority 1989, dated 1991)
Like-named read-outs stand apart in the source and are kept apart here.

Key:
Rats [1] = assay: Neurotoxicity TD50, narrow plank walking test; details: narrow plank test one hour after administration
Procedure: Rats - Rats are subjected to the 4-vessel occlusion model of stroke for 30 minutes followed by drug injection at 30 minutes after blood reflow to the brain. The drugs are administered ip twice daily for one week. At 8 days post stroke the brains are removed and protection is determined by determining viability of the vulnerable CA1 neurons in the hippocampus (neutrons associated with short term memory). […] Rats that fall are scored as failures.

Dogs [2] = details: iv
Procedure: (§2) Dogs - Dogs are subjected to 8 minutes global ischemia (clamping the ascending aorta) and are treated iv with drug at 30 minutes after reflow. Treatment is given 6 hours later, b.i.d. for 2 more days and s.i.d. for 4 additional days. On day 8 the brains are removed and again drug protection of the vulnerable CA1 neurons is assessed. The Toxic doses are determined by administering the drug iv to conscious dogs in incremental doses and observing for side effects (we use preictal behaviour or convulsions as an endpoint).

[3] = Inverted screen test of Coughenour et al. (TD50); details: mouse, in vivo, mice, oral
Dogs [4] = details: conscious dogs, iv incremental doses
Procedure: as §2

[5] = CD50: seizure following ip injection of the compound; details: mouse, in vivo, mice, no inverted screen TD50 performed, CD50 = dose when 50% of mice experience a seizure following ip injection
Mice [6] = assay: Protection against NMDLA induced mortality; type: in vivo; details: Mus musculus, 1 h, ip, evaluated over 60 minutes after NMDLA injection (150 mg/kg iv)
Procedure: (§1) NMDA blocking activity may be measured by assessing a compound's ability to protect mice from convulsions induced by intravenous administration of 150 m/k of NMDA according to the procedures of Czuczwar et al., (Neurotransmitters, Seizures and Epilepsy III, edited by G. Nistico et al., Raven Press, New York 1986, pages 235-246). Groups of mice were pretreated by 30 min with the test compound by the oral or intraperitoneal routes and then given NMDA. […] Animals were kept for 60 min after NMDA dosing and mortality was recorded.

Mice [7] = assay: Antihypoxia studies (time to mortality in a hypoxic environment); type: in vivo; details: Mus musculus, oral, dose that produces a 50% increase in the time to mortality in an hypoxic environment
Procedure: Antihypoxia activity, that is, they extension of the lifetime of animals exposed to a hypoxic environment, may be conveniently measured in mice. Groups of mice are tested at various times after the intraperitoneal administration of graded doses of the test compound. The animals' survival time in a temperature controlled hypoxic environment (96% nitrogen and 4% oxygen) is recorded. A statistical comparison is made between coincident vehicle treated animals and the experimental group. […] Other modes of administration can also be used.

Rats [8] = assay: 4-vessel occlusion model of stroke, viability of CA1 neurons in the hippocampus; type: in vivo; details: ip doses of 20mg/kg twice daily for one week, first injection 30 minutes after reflow, 30 minutes 4-vessel occlusion, brains at 8 days
Mice [9] = assay: Protection against NMDLA induced seizures (convulsions); type: in vivo; details: Mus musculus, 5 min, ip, evaluated for 5 minutes following iv injection of 150 mg/kg NMDLA
Procedure: as §1, with “Groups of mice were pretreated by 30 min with the test compound by the oral or intraperitoneal routes and then given NMDA.” left out

Dogs [10] = assay: Global ischemia (clamping the ascending aorta), protection of CA1 neurons; details: iv, 8 minutes global ischemia, treatment from 30 minutes after reflow, CA1 neurons on day 8
Procedure: as §2

SMILES | ip doses for TD50s relative to neurotoxicity in the rat (Rats [1]) | dose active in protecting dogs against stroke (Dogs [2]) | TD50 [3] | lowest toxic dose for convulsions (Dogs [4]) | lowest toxic dose for preictal behaviour (Dogs [4]) | TD50 [5] | ED50 (Mice [6]) | ED50 (Mice [7]) | preventing loss of the CA1 neurons (Rats [8]) | ED50 (Mice [9]) | dose active in protecting dogs against stroke (Dogs [10])
NCC(=O)NC(Cc1ccccc1)c1ccccc1 (stereo not drawn) [Compound B, 2-amino-N-(1,2-diphenylethyl)acetamide] | 47 | 5 mg/kg | 236 mg/kg | 44 mg/kg | 44 mg/kg | 82.4 mg/kg | 20.6 mg/kg | 19.1 mg/kg | effective | 33 mg/kg | –
CC(Cc1ccccc1)(NC(=O)CN)c1ccccc1 (stereo not drawn) [Compound A, 2-amino-N-(1,2-diphenyl-1-methylethyl)acetamide] | – | – | – | – | – | – | – | – | effective | – | 7.5 mg/kg
